Patent US11155517B2, “4-substituted phenylamine derivatives and their use to protect crops by fighting undesired phytopathogenic micoorganisms” (PI INDUSTRIES LTD., priority 2016, dated 2021)

How the values were obtained:
Rhizoctonia solani = Rhizoctonia solani (rice sheath blight/potato black scurf) in vitro test, radial growth on Potato Dextrose Agar; format: cell-based; settings: 168 h, 300 ppm, seven days, 25° C., read-out: % control compared to the untreated check (radial growth)
Fusarium culmorum [1] = experiment: Fusarium culmorum (foot rot of cereals) in vitro test, radial growth on Potato Dextrose Agar; format: cell-based; settings: Fusarium culmorum, 168 h, read-out: % control compared to the untreated check (radial growth)
Fusarium culmorum [2] = experiment: Greenhouse Fusarium culmorum test in wheat, preventive; format: in vivo; settings: 24 h, read-out: Efficacy (% control), disease severity vs untreated check
Description: Compounds were dissolved in 2% DMSO/Acetone & then mixed with water to calibrated spray volume of 50 ml. This 50 ml spray solution was poured into the spray bottles for further applications.
To test the preventive activity of compounds, healthy young wheat plants raised in the greenhouse were sprayed with active compound preparation at the stated application rates inside the spray cabinets using hallowcone nozzles. One day after treatment, the plants were inoculated with spore suspension (2% Malt) containing 2×10^6 Fusarium culmorum inoculum. The inoculated plants were then kept in greenhouse chamber at 24° C. temperature and 80-90% relative humidity for disease expression.
A visual assessment of compound's performance was carried by rating the disease severity (0-100% scale) on treated plants on 3, 7, 10 and 15 days after application. Efficacy (% control) of the compounds was calculated by comparing the disease rating in the treatment with untreated control. The sprayed plants were also assessed for compound's phytotoxic effects by recording symptoms like necrosis, chlorosis and stunting.

Botrytis cinerea = Botrytis cinerea (gray mold) in vitro test, radial growth on Potato Dextrose Agar; format: cell-based; settings: 168 h, 300 ppm, seven days, 22° C., read-out: % (control) compared to the untreated check (radial growth)
Pyricularia oryzae = experiment: microbe, parasite or virus in culture; format: cell-based; settings: 168 h, read-out: % control compared to the untreated check (radial growth)
Alternaria solani = Alternaria solani (early blight of tomato/potato) in vitro test, radial growth on Potato Dextrose Agar; format: cell-based; settings: 168 h, 300 ppm, seven days, 25° C., read-out: % control compared to the untreated check (radial growth)
Colletotrichum capsici = Colletotrichum capsici (anthracnose) in vitro test, radial growth on Potato Dextrose Agar; format: cell-based; settings: Colletotrichum truncatum, 168 h; 300 ppm; seven days, 25° C.; read-out: % control compared to the untreated check (radial growth)
Septoria lycopersici = Septoria lycopersici (leaf spot of tomato) in vitro test, radial growth on Potato Dextrose Agar; format: cell-based; settings: 168 h, seven days, 25° C., read-out: % control compared to the untreated check (radial growth)
Botrytis cinera = experiment: Greenhouse Botrytis cinera test in tomato, preventive; format: in vivo; settings: 24 h, plants sprayed one day before inoculation, read-out: Efficacy (% control), disease severity vs untreated check

Row | Compound | inhibition of growth at 300 ppm (Rhizoctonia solani) [%] | inhibition of growth at 300 ppm (Fusarium culmorum [1]) [%] | pest or weed control at 500 ppm (Fusarium culmorum [2]) [%] | inhibition of growth at 300 ppm (Botrytis cinerea) [%] | inhibition of growth at 300 ppm (Pyricularia oryzae) [%] | inhibition of growth at 300 ppm (Alternaria solani) [%] | inhibition of growth at 300 ppm (Colletotrichum capsici) [%] | inhibition of growth at 300 ppm (Septoria lycopersici) [%] | pest or weed control at 500 ppm (Botrytis cinera) [%]
1 | CCN(C)C=Nc1cc(C)c(Cc2ccc(SC(F)(F)F)cc2)cc1Cl [Compound 77, N′-(2-chloro-5-methyl-4-(4-((trifluoromethyl)thio)benzyl)phenyl)-N-ethyl-N-methylformimidamide] | > 80 | 75 | 70 to 100 | > 80 | > 75 | > 75 |  |  | 
2 | CCN(C)C=Nc1cc(C)c(Cc2ccc(Cl)c(F)c2)cc1C [Compound 105, N′-(4-(4-chloro-3-fluorobenzyl)-2,5-dimethylphenyl)-N-ethyl-N-methylformimidamide] | > 80 | 75 |  | > 80 | > 75 | > 75 | > 80 | > 70 | 70 to 100
3 | CCN(C)C=Nc1cc(C)c(Cc2ccccc2[S+](C)[O-])cc1C (centres unmarked) [Compound 24, N′-(2,5-dimethyl-4-(2-(methylsulfinyl)benzyl)phenyl)-N-ethyl-N-methylformimidamide] | > 80 |  |  |  | > 75 | > 75 |  | > 70 | 70 to 100
4 | CCN(C)C=Nc1cc(C)c(Cc2cccc(C)c2)cc1Cl [Compound 43, N′-(2-chloro-5-methyl-4-(3-methylbenzyl)phenyl)-N-ethyl-N-methylformimidamide] | > 80 | 75 |  | > 80 | > 75 | > 75 | > 80 | > 70 | 70 to 100
5 | CCN(C)C=Nc1cc(C)c(Cc2cccc(C)c2)cc1C [Compound 6, N′-(2,5-dimethyl-4-(3-methylbenzyl)phenyl)-N-ethyl-N-methylformimidamide] | > 80 | 75 |  | > 80 | > 75 | > 75 | > 80 | > 70 | 70 to 100
6 | Cc1cc(N=CN2CCCCC2)c(C)cc1Cc1ccccc1Cl [Compound 59, N-(4-(2-chlorobenzyl)-2,5-dimethylphenyl)-1-(piperidin-1-yl)methanimine] | > 80 | 75 |  | > 80 | > 75 | > 75 | > 80 | > 70 | 70 to 100
7 | CCN(C)C=Nc1cc(C)c(Cc2ccc(C)c(C(F)(F)F)c2)cc1C [Compound 104, N′-(2,5-dimethyl-4-(4-methyl-3-(trifluoromethyl)benzyl)phenyl)-N-ethyl-N-methylformimidamide] | > 80 | 75 |  | > 80 | > 75 | > 75 | > 80 | > 70 | 70 to 100
8 | CCN(C)C=Nc1cc(C)c(Cc2cc(Cl)cc(Cl)c2)cc1C [Compound 3, N′-(4-(3,5-dichlorobenzyl)-2,5-dimethylphenyl)-N-ethyl-N-methylformimidamide] | > 80 |  |  | > 80 | > 75 | > 75 | > 80 | > 70 | 70 to 100
9 | CCN(C)C=Nc1c(C)cc(Cc2ccc(Br)cc2)c(C)c1Br [Compound 10, N′-(2-bromo-4-(4-bromobenzyl)-3,6-dimethylphenyl)-N-ethyl-N-methylformimidamide] | > 80 |  |  | > 80 | > 75 | > 75 | > 80 |  | 70 to 100
10 | CCN(C)C=Nc1cc(C)c(Cc2c(F)cccc2Cl)cc1Cl [Compound 184, N′-(2-chloro-4-(2-chloro-6-fluorobenzyl)-5-methylphenyl)-N-ethyl-N-methylformimidamide] | > 80 |  |  | > 80 | > 75 | > 75 | > 80 |  | 70 to 100
11 | CCN(C)C=Nc1cc(C)c(Cc2ccc(Cl)c(Cl)c2)cc1C [Compound 5, N′-(4-(3,4-dichlorobenzyl)-2,5-dimethylphenyl)-N-ethyl-N-methylformimidamide] | > 80 | 75 |  | > 80 | > 75 | > 75 | > 80 | > 70 | 70 to 100
12 | CCN(C)C=Nc1cc(C)c(Cc2cccc(Br)c2)cc1C [Compound 14, N′-(4-(3-bromobenzyl)-2,5-dimethylphenyl)-N-ethyl-N-methylformimidamide] | > 80 | 75 |  | > 80 | > 75 | > 75 | > 80 | > 70 | 70 to 100
13 | Cc1cc(N=CN(C#N)CC#N)c(C)cc1Cc1ccccc1Cl [Compound 90, N′-(4-(2-chlorobenzyl)-2,5-dimethylphenyl)-N-cyano-N-(cyanomethyl)formimidamide] |  |  |  |  |  |  |  |  | 70 to 100
14 | CCN(C)C=Nc1cc(C)c(Cc2cc(Cl)ccc2Cl)cc1Cl [Compound 166, N′-(2-chloro-4-(2,5-dichlorobenzyl)-5-methylphenyl)-N-ethyl-N-methylformimidamide] | > 80 |  |  | > 80 | > 75 | > 75 | > 80 | > 70 | 70 to 100
15 | CCN(C)C=Nc1cc(C)c(Cc2ccccc2OC(F)(F)F)cc1Cl [Compound 102, N′-(2-chloro-5-methyl-4-(2-(trifluoromethoxy)benzyl)phenyl)-N-ethyl-N-methylformimidamide] | > 80 |  |  | > 80 | > 75 | > 75 | > 80 | > 70 | 70 to 100
16 | CCN(C)C=Nc1cc(C)c(Cc2ccc(Br)cc2)cc1C [Compound 4, N′-(4-(4-bromobenzyl)-2,5-dimethylphenyl)-N-ethyl-N-methylformimidamide] | > 80 | 75 |  | > 80 | > 75 | > 75 | > 80 | > 70 | 70 to 100
17 | CCN(C)C=Nc1cc(C)c(Cc2cccc(Cl)c2)cc1C [Compound 11, N′-(4-(3-chlorobenzyl)-2,5-dimethylphenyl)-N-ethyl-N-methylformimidamide] | > 80 | 75 |  | > 80 | > 75 | > 75 | > 80 |  | 70 to 100
18 | CCN(C)C=Nc1cc(C)c(C2(c3ccccc3)SCCS2)cc1C [Compound 33, N′-(2,5-dimethyl-4-(2-phenyl-1,3-dithiolan-2-yl)phenyl)-N-ethyl-N-methylformimidamide] | > 80 |  | 70 to 100 |  | > 75 | > 75 |  | > 70 | 
19 | CCN(C)C=Nc1cc(C)c(Cc2ccc(F)cc2C)cc1Cl [Compound 167, N′-(2-chloro-4-(4-fluoro-2-methylbenzyl)-5-methylphenyl)-N-ethyl-N-methylformimidamide] | > 80 | 75 |  | > 80 | > 75 | > 75 | > 80 | > 70 | 
